The values that follow come from US10786481B2, “Hydroquinone compounds, preparation methods therefor, and use in anti-tumor or immunomodulation therapy” (Biomedical Analysis Center, Academy of Military Medical …, priority 2016, dated 2020).

Data set [1] in a line: Release experiment of target compound in human plasma. Particulars: 37° C., 5 min to 9 h.
Method: Mobile phase: gradient elution; A: water; B: methanol;
Chromatographic column: CAPCEL PAK MF PH-1;
Detecting instrument: TQ-S; ion source: APCI; ion detection mode: MRM;
Dissolving the target compound with DMSO, then diluting to 5 μg/mL with the normal saline of 0.9%. The human blank plasma after subpackage is preserved at −70° C., unfreezing in a refrigerator at 4° C. when used. Take 20 μL of the blank plasma, adding 20 μL of the target compound solution as above formulated, vortexing for 15 s, and left it in the water bath at 37° C. […] Take the supernatant and inject 10 μL for detection.
Data set [2] concerns immortalized mice bone marrowmacrophages (IBMM). Put plainly: Cytotoxicity, MTS method, IBMM cell. It is filed as cell-based. Particulars: Mus musculus, Bone marrow macrophage, MTS method; read-out: IC50(mM) IBMM cell. The text has this:
(§1) The toxicity of compounds is detected with MTS method in the immortalized mice bone marrowmacrophages (IBMM), mice embryonic fibroblast (NIH3t3) and humanized embryonic nephrocyte.
(In general: Tetrazolium dyes change colour on reduction, which living cells bring about.)

Data set [3] concerns mice embryonic fibroblast (NIH3t3). Kind of data set: Cytotoxicity, MTS method, NIH3T3 cell. It is filed as cell-based. Particulars: Mus musculus, NIH3T3, MTS method; read-out: IC50(mM) NIH3T3 cell.
Source text: as §1

In data set [4] the test system is humanized embryonic nephrocyte (HEK293 cell). Put plainly: Cytotoxicity, MTS method, HEK293 cell. It is filed as cell-based. Particulars: Homo sapiens, HEK293, MTS method; read-out: IC50(mM) HEK293 cell.
Source text: as §1

On to `COc1ccc(OC(=O)c2cc(I)ccc2Br)c(C(C)(C)C)c1` [XH2041-3, (2-tert-butyl-4-methoxyphenol) 2-bromo-5-iodo benzoate], for which the “release of BHA in human plasma” value in data set [1] was “releases BHA”.

Regarding `COc1ccc(OC(=O)c2cnccc2C)c(C(C)(C)C)c1` [XH2030, (2-tert-butyl-4-methoxyphenol) 4-methylpyridine-3-formate], the “release of BHA in human plasma” value in data set [1] is given as “releases BHA”.

As for `COc1ccc(OC(=O)c2cc(Cl)ccn2)c(C(C)(C)C)c1` [XH2043-3, (2-tert-butyl-4-methoxyphenol) 4-chloropyridine-2-formate], the “release of BHA in human plasma” value in data set [1] was “releases BHA”.

In general, IC50 refers to the concentration needed to halve the response being measured. Consider `CCC(=O)Oc1ccc(OC)cc1C(C)(C)C` [XH2016, 2-tert-butyl-4-methoxyphenol propionate], for which the IC50 in data set [2] came to 0.148 mM; in data set [3] it was 0.0186 mM; in data set [4], 0.065 mM.

`COc1ccc(OC(=O)CCCCCC(C)=O)c(C(C)(C)C)c1` [XH2040-5, (2-tert-butyl-4-methoxyphenol) 7-oxooctanoate]: in data set [1], the “release of BHA in human plasma” value was “releases BHA”.

For the compound `COc1ccc(OC(=O)CCc2cc(C(C)(C)C)c(O)c(C(C)(C)C)c2)c(C(C)(C)C)c1` [XH2045-2, (2-tert-butyl-4-methoxyphenol) 3-(3,5-di-tert-butyl-4-hydroxy-phenyl)propionate], the “release of BHA in human plasma” value in data set [1] is on record as “releases BHA”.

Consider `COc1ccc(OC(=O)C2CCCN(C(=O)OC(C)(C)C)C2)c(C(C)(C)C)c1` (stereo not shown) [XH2025, (2-tert-butyl-4-methoxyphenol) N-tert-butoxycarbonylpiperidine-3-formate], for which, in data set [1], the “release of BHA in human plasma” value was “releases BHA”.

`COc1ccc(OC(=O)c2ccc([N+](=O)[O-])cc2F)c(C(C)(C)C)c1` [XH2041-4, (2-tert-butyl-4-methoxyphenol) 2-fluoro-4-nitryl benzoate]: the “release of BHA in human plasma” value in data set [1] was “releases BHA”.

For the compound `COc1ccc(OC(=O)C2CCCN(C)C2)c(C(C)(C)C)c1` (stereo not shown) [XH2043-4, (2-tert-butyl-4-methoxyphenol) N-methylpiperidine-3-formate], in data set [1], the “release of BHA in human plasma” value is “releases BHA”.

Take `COc1ccc(OC(=O)CCc2cccc([N+](=O)[O-])c2)c(C(C)(C)C)c1` [XH2028, (2-tert-butyl-4-methoxyphenol) 3-(3-nitrophenyl)propionate]: in data set [1], the “release of BHA in human plasma” value is on record as “releases BHA”.

For `COc1ccc(OC(=O)CC23CC4CC(CC(C4)C2)C3)c(C(C)(C)C)c1` [XH2040-1, (2-tert-butyl-4-methoxyphenol) adamantaneacetate], the “release of BHA in human plasma” value in data set [1] was “releases BHA”.

On to `COc1ccc(OC(=O)c2ccccc2-c2ccccc2C(=O)Oc2ccc(OC)cc2C(C)(C)C)c(C(C)(C)C)c1` [XH2020, bis(2-tert-butyl-4-methoxyphenol)2,2′-biphenyldicarboxylate], for which the “release of BHA in human plasma” value in data set [1] was “releases BHA”.

As to `COc1ccc(OC(=O)c2cc(Cl)nnc2Cl)c(C(C)(C)C)c1` [XH2038-1, (2-tert-butyl-4-methoxyphenol) 3,6-dichloropyridazine-4-formate], the half-maximal inhibitory concentration (IC50) in data set [2] is 0.222 mM; in data set [3], 0.236 mM; in data set [4] it was 0.33 mM.

With `COc1ccc(OC(=O)c2cnccc2OC)c(C(C)(C)C)c1` [XH2031, (2-tert-butyl-4-methoxyphenol) 4-methoxypyridine-3-formate], in data set [1], the “release of BHA in human plasma” value was “releases BHA”.

Turning to `COc1ccc(OC(=O)C(C)F)c(C(C)(C)C)c1` (stereo not shown) [XH2039-4, (2-tert-butyl-4-methoxyphenol) 2-fluoropropionate], the “release of BHA in human plasma” value in data set [1] is “releases BHA”.

For the compound `COc1ccc(OC(=O)Cc2cccc(F)c2)c(C(C)(C)C)c1` [XH2022, (2-tert-butyl-4-methoxyphenol) 3-fluorophenylacetate], in data set [1], the “release of BHA in human plasma” value is listed as “releases BHA”.

On to `COc1ccc(OC(=O)c2cccnc2Cl)c(C(C)(C)C)c1` [XH2038-4, (2-tert-butyl-4-methoxyphenol) 2-chloro-3-picolinate], for which, in data set [1], the “release of BHA in human plasma” value was “releases BHA”.

On to `COc1ccc(OC(=O)c2ccc(Cl)c(F)c2)c(C(C)(C)C)c1` [XH2035, (2-tert-butyl-4-methoxyphenol) 3-fluoro-4-chlorobenzoate], for which, in data set [1], the “release of BHA in human plasma” value is on record as “releases BHA”.

Consider `COc1ccc(OC(=O)c2ccc(-c3ccccc3)cc2)c(C(C)(C)C)c1` [XH2029, (2-tert-butyl-4-methoxyphenol) 4-phenylbenzoate], for which the “release of BHA in human plasma” value in data set [1] is “releases BHA”.

On to `C=CC(=O)Oc1ccc(OC)cc1C(C)(C)C` [XH2017, 2-tert-butyl-4-methoxyphenol acrylate], for which the concentration for half-maximal inhibition (IC50) is 0.56 mM in data set [2], 0.0229 mM in data set [3] and 0.008 mM in data set [4].

As to “di(2-tert-butyl-4-methoxyphenol) malonate [XH2037]”, in data set [1], the “release of BHA in human plasma” value is reported as “releases BHA”.

In the case of `COc1ccc(OC(=O)CCc2ccc(C)cc2)c(C(C)(C)C)c1` [XH2039-1, (2-tert-butyl-4-methoxyphenol) 3-(4-methylphenyl)-propionate], in data set [1], the “release of BHA in human plasma” value was “releases BHA”.

Turning to `COc1ccc(OC(=O)CNC(=O)OC(C)(C)C)c(C(C)(C)C)c1` [XH2034, N-tert-butoxycarbonylglycine(2-tert-butyl-4-methoxyphenol)ester], the “release of BHA in human plasma” value in data set [1] was “releases BHA”.

`CCCCCCCCCCCCCCCC(=O)Oc1ccc(OC)cc1C(C)(C)C` [XH2033, 2-tert-butyl-4-methoxyphenol hexadecylate]: the “release of BHA in human plasma” value in data set [1] is reported as “releases BHA”.

For the compound `COc1ccc(OC(=O)C(C)c2ccccc2)c(C(C)(C)C)c1` (stereo not shown) [XH2039-3, (2-tert-butyl-4-methoxyphenol) 2-phenyl propionate], in data set [1], the “release of BHA in human plasma” value is “releases BHA”.

Turning to “di(2-tert-butyl-4-methoxyphenol) terephthalate [XH2026]”, the “release of BHA in human plasma” value in data set [1] is listed as “releases BHA”.

Turning to “di(2-tert-butyl-4-methoxyphenol) p-phenylenediacetate [XH2042]”, the “release of BHA in human plasma” value in data set [1] is “releases BHA”.

For “(2-tert-butyl-4-methoxyphenol) 1-methylcyclopropyl formate [XH2038-2]”, the “release of BHA in human plasma” value in data set [1] is “releases BHA”.

Take `COc1ccc(OC(=O)c2cccc(C#N)c2)c(C(C)(C)C)c1` [XH2036-2, (2-tert-butyl-4-methoxyphenol) 3-cyanobenzoate]: in data set [1], the “release of BHA in human plasma” value was “releases BHA”.

Consider `COc1ccc(OC(=O)CCc2ccc(F)cc2)c(C(C)(C)C)c1` [XH2024, (2-tert-butyl-4-methoxyphenol) 3-(4-fluorophenyl)-propionate], for which the “release of BHA in human plasma” value in data set [1] is “releases BHA”.

As for `COc1cc(C=CC(=O)Oc2ccc(OC)cc2C(C)(C)C)cc(OC)c1` [XH2043-2, (2-tert-butyl-4-methoxyphenol) 3,5-dimethoxy phenylacrylate], in data set [1], the “release of BHA in human plasma” value is “releases BHA”.

Consider “di(2-tert-butyl-4-methoxyphenol) adipate [XH2046-3]”, for which, in data set [1], the “release of BHA in human plasma” value is given as “releases BHA”.

For `COc1ccc(OC(=O)CCCC(=O)c2ccccc2)c(C(C)(C)C)c1` [XH2043-1, (2-tert-butyl-4-methoxyphenol) 4-benzoyl butyrate], the “release of BHA in human plasma” value in data set [1] was “releases BHA”.

For the compound `COc1ccc(OC(=O)C2CCCN(C(=O)OC(C)(C)C)C2)c(C(C)(C)C)c1` (stereo not shown) [XH2041-5, (2-tert-butyl-4-methoxyphenol) N-tert-butoxycarbonylpiperidine-3-formate], in data set [1], the “release of BHA in human plasma” value is “releases BHA”.
